Laboratory results: US6395726B1, “3,6-disubstituted penam sulfone derivatives” (priority 1999, dated 2002)
Read-outs that look alike come from different tables or passages of the source. Marks after values point to notes of the source that are not given here.

Columns and labels:
[1] = system: S. marcescens (AmpC, Class C); test: Microbiological assay, broth MIC in combination with piperacillin; assay type: cell-based; conditions: for MIC (μg/ml; 1:1) S. marcescens: piperacillin:inhibitor ratio 1:1
Protocol: (§1) Representative compounds according to the present invention were tested in a microbiological assay in combination with the penicillin antibiotic piperacillin. The enhanced combined synergestic antibacterial activity is representative of the β-lactamase inhibitory properties of the compounds of the present invention. In these tests, minimum inhibitory […] (MIC's) are determined in broth using several two-fold dilutions with a 1:1 ratio of piperacillin to inhibitor (N. A. Kuck, N. V. Jacobus, P. J. Peterson, W. J. Weiss, and R. T. Testa, Antibiotic Agents and Chemotherapy, 33:1964-1969 (1989)).

[2] = system: E. coli (TEM-1, Class A); test: as above; assay type: cell-based; conditions: for MIC (μg/ml; 1:1) E. coli: piperacillin:inhibitor ratio 1:1, broth
Protocol: as §1

[3] = target: AmpC β-lactamase (UniProt P18539); assay type: biochemical; conditions: read-out: IC50 (nM) AmpC
[4] = target: TEM-1 β-lactamase (Escherichia coli, UniProt P62593); test: β-lactamase inhibition, spectrophotometric, nitrocefin substrate; assay type: biochemical
[5] = 10 minute preincubation of enzyme with inhibitor at 25° C., nitrocefin substrate
[6] = 10 minute preincubation of enzyme with inhibitor at 25° C., nitrocefin substrate, read-out: IC50 (nM) TEM-1

Sequence of TEM-1 β-lactamase (P62593 24-286 limits assumed): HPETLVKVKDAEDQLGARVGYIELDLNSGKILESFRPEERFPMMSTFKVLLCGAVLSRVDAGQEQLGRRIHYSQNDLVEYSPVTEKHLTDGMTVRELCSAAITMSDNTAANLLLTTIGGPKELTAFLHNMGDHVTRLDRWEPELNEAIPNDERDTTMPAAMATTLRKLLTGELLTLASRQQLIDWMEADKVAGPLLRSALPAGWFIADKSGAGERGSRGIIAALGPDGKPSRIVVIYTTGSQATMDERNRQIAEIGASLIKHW

Compound	MIC (μg/ml; 1:1) S. marcescens ([1]; strain GC4132, AmpC (Class C)) [µg/mL]	MIC (μg/ml; 1:1) E. coli ([2]; strain GC6265, TEM-1 (Class A)) [µg/mL]	IC50 [3, 5] [nM]	IC50 [4, 6] [nM]	IC50 [3] [nM]	IC50 [4] [nM]	further results
CCN1CCN(C(=O)N[C@@H](C(=O)N[C@@H]2C(=O)N3[C@@H]2SC(C)(C)[C@@H]3C(=O)O)c2ccccc2)C(=O)C1=O [Piperacillin, reference compound]	–	–	–	–	–	–	MIC ([1]; Serratia marcescens, strain GC4132, AmpC (Class C), piperacillin row, no inhibitor named, read-out: MIC (μg/ml) S. marcescens): 32 µg/mL; MIC ([2]; Escherichia coli, read-out: MIC (μg/ml) E. coli): > 64 µg/mL
C[C@]1(/C=C\C#N)[C@H](C(=O)O)N2C(=O)[C@@H](CO)[C@H]2S1(=O)=O [Example 2 (cis), (Z)-(2S,3S,5R,6R)-6-Hydroxymethyl-3-methyl-3-(3-nitrilo-propenyl)-4,4,7-trioxo-4-lambda(6)-thia-1-azabicyclo[3.2.0]heptane-2-carboxylic acid]	8	4	270	19	–	–	–
CON=C[C@@]1(C)[C@H](C(=O)O)N2C(=O)[C@@H](CO)[C@H]2S1(=O)=O [Example 3, (2S,3R,5R,6R)-6-Hydroxymethyl-3-(methoxyimino-methyl)-3-methyl-4,4,7-trioxo-4-lambda(6)-thia-1-aza-bicyclo[3.2.0]heptane-2-carboxylic acid]	16	8	–	–	280	64	–
C[C@]1(/C=C/C#N)[C@H](C(=O)O)N2C(=O)[C@@H](CO)[C@H]2S1(=O)=O [Example 2 (trans), (E)-(2S,3S,5R,6R)-6-Hydroxymethyl-3-methyl-3-(3-nitrilo-propenyl)-4,4,7-trioxo-4-lambda(6)-thia-1-aza-bicyclo[3.2.0]heptane-2-carboxylic acid]	4	16	280	74	–	–	–
C[C@]1(Cn2ccnn2)C(C(=O)[O-])N2C(=O)[C@@H](CO)C2S1(=O)=O.[Na+] (some centres unmarked) [Example 1]	–	–	–	–	–	6	MIC (μg/ml; 1:1) S. marcescens ([1]; strain GC2894, AmpC (Class C)): 16^e μg/ml; MIC (μg/ml; 1:1) E. coli ([2]; strain GC2847, TEM-1 (Class A)): 2^c μg/ml
C[C@]1(Cn2ccnn2)[C@H](C(=O)O)N2C(=O)C[C@H]2S1(=O)=O [Tazobactam, reference compound]	32	2	–	–	47700	–	–
